Measurements published in publication PMC8881512 (Nature Communications, 2022).
Several values for one entry are separate records, joined by “and”; a condition that tells them apart may be missing. Equal entries are not always repeated.

Tests used:
[1] = tested on: YAP target, ESR1 and ERα target gene mRNA in T47D cells; assay: qPCR gene expression in T47D cells; type: cell-based, human; settings: 2 µM for 2 days; for ANKRD1 mRNA (qPCR, relative to DMSO) / LATS2 mRNA (qPCR, relative to DMSO) / VGLL3 mRNA (qPCR, relative to DMSO): sheet Fig.s7c (Supplementary Fig. 7d); for ESR1 mRNA (qPCR, relative to DMSO) / GREB1 mRNA (qPCR, relative to DMSO) / TFF1 mRNA (qPCR, relative to DMSO): sheet Fig.s7e (Supplementary Fig. 7f)
From the text: PCR primer pairs included

LATS2 = target: T1, LATS2 (Homo sapiens, UniProt Q9NRM7); assay: In vitro LATS2 kinase inhibition assay (HTRF); type: biochemical; set-up: key to LATS2 kinase activity: % inhibition = (HIGH − ratio)×100/(HIGH − LOW); settings: for LATS2 kinase activity: Fig.5c; for IC50: in vitro, 6000 μM ATP, n = 2
T1 construct: purchased Signalchem
T1 sequence (Q9NRM7 1-1088): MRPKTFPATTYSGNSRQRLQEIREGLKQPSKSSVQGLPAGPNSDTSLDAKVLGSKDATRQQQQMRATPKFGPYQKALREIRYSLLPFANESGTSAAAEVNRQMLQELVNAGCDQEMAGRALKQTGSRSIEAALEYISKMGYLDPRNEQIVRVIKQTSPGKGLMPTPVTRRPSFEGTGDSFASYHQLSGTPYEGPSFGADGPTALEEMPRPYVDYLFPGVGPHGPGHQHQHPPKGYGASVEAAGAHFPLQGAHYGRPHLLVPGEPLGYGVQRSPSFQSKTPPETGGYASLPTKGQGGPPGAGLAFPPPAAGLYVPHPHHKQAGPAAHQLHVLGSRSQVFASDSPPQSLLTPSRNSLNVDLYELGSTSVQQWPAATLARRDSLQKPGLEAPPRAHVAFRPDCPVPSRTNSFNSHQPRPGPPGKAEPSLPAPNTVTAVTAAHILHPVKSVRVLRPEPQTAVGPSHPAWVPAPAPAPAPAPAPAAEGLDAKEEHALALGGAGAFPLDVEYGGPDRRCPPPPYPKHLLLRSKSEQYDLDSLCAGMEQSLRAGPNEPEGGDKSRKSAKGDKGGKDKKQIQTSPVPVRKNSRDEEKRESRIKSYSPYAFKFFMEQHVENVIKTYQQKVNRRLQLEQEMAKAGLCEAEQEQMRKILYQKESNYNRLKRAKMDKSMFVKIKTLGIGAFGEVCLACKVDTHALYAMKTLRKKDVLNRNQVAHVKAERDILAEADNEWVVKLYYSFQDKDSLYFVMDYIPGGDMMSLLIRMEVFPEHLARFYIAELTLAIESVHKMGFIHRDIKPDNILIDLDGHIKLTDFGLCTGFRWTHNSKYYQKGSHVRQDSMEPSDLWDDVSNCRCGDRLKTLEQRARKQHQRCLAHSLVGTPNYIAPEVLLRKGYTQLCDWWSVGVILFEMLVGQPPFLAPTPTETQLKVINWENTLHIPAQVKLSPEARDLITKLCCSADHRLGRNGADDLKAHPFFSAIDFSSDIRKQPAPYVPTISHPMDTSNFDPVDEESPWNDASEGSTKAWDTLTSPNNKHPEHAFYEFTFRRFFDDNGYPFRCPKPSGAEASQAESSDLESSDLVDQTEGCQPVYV
Description: The kinase activity of LATS1 and LATS2 were performed based on an adapted and optimised HTRF Kinase Binding assay (Cisbio). Briefly, the concentration-response curves with compound concentration range of 10,000 to 0.17 nM with 3-fold serial dilution and 1X Kinase enzymatic buffer (Cisbio), 1.2 nM LATS1 or LATS2 kinases (Signalchem), 0.5 μM biotinylation labelled YAP peptide (Vivace) were dispensed into 384-well microplates by automated digital dispenser Echo/POD with the final DMSO concentration in all wells at 0.5%. To start the enzymatic reaction, 3000 μM ATP (for LATS1) or 6000 μM ATP (for LATS2) were added using multidrop in a 10-μl volume and incubated for 90 min at 30 °C. Subsequently, 10 μl of HTRF KinEASE detection buffer (Cisbio) containing 31.25 nM acceptor conjugate (streptavidin-XL665) and 1:100 donor conjugate (TK antibody labelled with Eu^3+-Cryptate) mixture were added and incubated at RT for 60 min, and the fluorescence emission at two different wavelengths was measured (615 nm and 665 nm) on Envision. […] The inhibition was calculated by the formula, inhibition % = (HIGH − ratio) × 100/ (High − LOW). HIGH control stands for 0.5% DMSO with kinase and LOW control stands for 0.5% DMSO without kinase. The data was analysed by Xlfit software. The IC50 values were determined by fitting to a standard four-parameter logistic using GraphPad Prism.

Row | Compound | ANKRD1 mRNA (qPCR, relative to DMSO) [1] | LATS2 mRNA (qPCR, relative to DMSO) [1] | VGLL3 mRNA (qPCR, relative to DMSO) [1] | ESR1 mRNA (qPCR, relative to DMSO) [1] | GREB1 mRNA (qPCR, relative to DMSO) [1] | TFF1 mRNA (qPCR, relative to DMSO) [1] | LATS2 kinase activity (LATS2; Conc. 0.00016935 (µM)) | LATS2 kinase activity (LATS2; Conc. 0.00050805 (µM)) | LATS2 kinase activity (LATS2; Conc. 0.00152416 (µM)) | LATS2 kinase activity (LATS2; Conc. 0.00457247 (µM)) | LATS2 kinase activity (LATS2; Conc. 0.0137174 (µM)) | LATS2 kinase activity (LATS2; Conc. 0.0411523 (µM)) | LATS2 kinase activity (LATS2; Conc. 0.123457 (µM)) | LATS2 kinase activity (LATS2; Conc. 0.37037 (µM)) | LATS2 kinase activity (LATS2; Conc. 1.11111 (µM)) | LATS2 kinase activity (LATS2; Conc. 3.33333 (µM)) | LATS2 kinase activity (LATS2; Conc. 10 (µM)) | IC50 (LATS2)
1 | CCN(CC)c1nc(-c2ccncc2)nc2c(-c3ccc(Cl)cc3)cccc12 [VT02484] | 0.9511 and 0.8877 and 0.7788 | 1.062 and 1.257 and 1.047 | 1.036 and 0.9545 and 1.103 | 1.074 and 0.8288 and 1.02 | 1.002 and 1.049 and 0.9359 | 1.09 and 1.077 and 1.0923 | 96.8406 and 89.7881 | 86.8123 and 94.4369 | 95.4849 and 93.7686 | 92.5091 and 95.5041 | 94.4128 and 88.6006 | 86.8411 and 90.365 | 93.2446 and 92.7206 | 94.4513 and 95.1243 | 88.3362 and 87.5718 | 84.322 and 85.4373 | 81.6154 and 76.4186 | > 10000 nM
2 | NCC1CCN(c2nc(-c3ccncc3)nc3c(C#CCO)cccc23)CC1 [VT02956] | 151.05 and 152.548 and 126.932 | 2.078 and 1.8081 and 2.057 | 25.7059 and 26.0713 and 24.6224 | 0.1433 and 0.1061 and 0.1464 | 0.2102 and 0.1984 and 0.2087 | 0.06716 and 0.07329 and 0.06992 | 60.6319 and 66.1157 | 35.6649 and 36.636 | 7.393 and 7.887 | – | – | – | – | – | – | – | – | 0.52 nM
